From patent US10533012B2, “(R)-pirlindole and its pharmaceutically acceptable salts for use in medicine” (TECNIMEDE SOCIEDADE TECNICO-MEDICINAL S.A., priority 2014, dated 2020)

Biological target: T1, human α2A adrenergic receptor (Homo sapiens, UniProt P08913)
T1 construct: expressed in transfected cells; host or cells: CHO (Chinese hamster ovary) cells
T1 sequence (P08913 1-465): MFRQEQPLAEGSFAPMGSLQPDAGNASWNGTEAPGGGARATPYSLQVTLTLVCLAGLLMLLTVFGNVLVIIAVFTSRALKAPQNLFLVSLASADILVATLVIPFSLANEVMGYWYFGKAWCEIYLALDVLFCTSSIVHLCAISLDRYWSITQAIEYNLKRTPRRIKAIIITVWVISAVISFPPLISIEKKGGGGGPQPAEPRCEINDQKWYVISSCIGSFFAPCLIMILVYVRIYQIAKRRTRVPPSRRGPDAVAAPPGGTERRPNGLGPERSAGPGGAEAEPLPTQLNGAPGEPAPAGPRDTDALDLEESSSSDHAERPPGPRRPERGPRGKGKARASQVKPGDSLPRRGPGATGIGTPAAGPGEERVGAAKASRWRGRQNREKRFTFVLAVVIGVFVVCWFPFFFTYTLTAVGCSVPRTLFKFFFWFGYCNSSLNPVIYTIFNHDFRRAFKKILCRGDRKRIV
Experiment: functional α2A adrenergic receptor antagonism assay in CHO cells (morphological response, versus agonist UK-14304)
Assay type: cell-based
Details: for inhibition at 10 µM: CHO, 100 minus % maximum agonist activity; for % Maximum Agonist Activity (percentage of maximum agonist activity induced by UK-14304): CHO cells expressing human α2A receptor, reading 6 minutes after addition
Description: The functional α2A adrenergic receptor antagonism assay was carried out in a platform in which the morphological response of CHO (Chinese hamster ovary) cells expressing α2A receptors was assessed. The functional assay was performed using as test items the (R)-pirlindole and the (rac)-pirlindole.
The CHO cells, expressing the human α2A adrenergic receptor were plated the day before the experiment in an adequate culture medium. The compounds were added to the wells and readings were taken 6 minutes later. Responses from the samples were compared to control responses to assess agonist or antagonist activity. The percentage of maximal activity (% Maximum Activity) translates the percentage of agonist activity induced by the α2A agonist, UK-14304 (5-Bromo-N-(2-imidazolin-2-yl)-6-quinoxalinamine, 5-Bromo-N-(4,5-dihydro-1H-imidazol-2-yl)-6-quinoxalinamine, brimonidine) commercialized by the company Sigma-Aldrich.

Row | antagonist activity on α2A adrenergic receptors, times less than (R)-pirlindole (10 μM, ratio of inhibition versus (R)-pirlindole) [times] | inhibition at 10 µM (test compound 10 μM) [%] | % Maximum Agonist Activity (percentage of maximum agonist activity induced by UK-14304) (test compound 1 μM) [%] | % Maximum Agonist Activity (percentage of maximum agonist activity induced by UK-14304) (test compound 5 μM) [%] | % Maximum Agonist Activity (percentage of maximum agonist activity induced by UK-14304) (test compound 10 μM) [%] | SMILES
1 | ~4 | 11 | 98.47 | 96.50 | 89.02 | Cc1ccc2c(c1)c1c3n2CCNC3CCC1 (racemic) [(rac)-pirlindole, 2,3,3a,4,5,6-hexahydro-8 methyl-1H-pyrazino [3,2,1-j, k] carbazole]
2 | – | 40.3 | 107.76 | 87.37 | 59.72 | Cc1ccc2c(c1)c1c3n2CCN[C@@H]3CCC1 [(R)-pirlindole]
